For data set [1] the following is noted: Garcia Fortanet et al., J Med Chem 2016; cited from earlier work.
In data set [2] the test system is renal fibrosis induced by carbon tetrachloride. Conditions: Kostallari et al., 2018; cited from earlier work.
Data set [3] has as its system Obese diabetic mice. Kind of data set: OGTT in obese diabetic mice after chronic SHP2 inhibition. Conditions: gavage 50 mg/kg/day.
Method: Obese diabetic mice were treated by gavage (50 mg/kg/day). After 15 days of treatment an OGTT was performed (FIG. 1).
The mark [4] stands for this setting: after 15 days of treatment, compared to control.

As to `CC1(N)CCN(c2cnc(-c3cccc(Cl)c3Cl)c(N)n2)CC1` [SHP099, 6-(4-amino-4-methylpiperidin-1-yl)-3-(2,3-dichlorophenyl)pyrazin-2-amine], in data set [1], the oral bioavailability result is reported as “good” and the tolerance result is “good tolerance”. Further, in data set [2], the “effectiveness in treatment of renal fibrosis” value was “effectiveness in treatment of renal fibrosis”. Moreover, in data set [3] (15 days of treatment), the body composition result was “without any change” and the weight result is “without any change”. In data set [3] (setting [4]), the fasting blood glucose result is recorded as “decreased fasting blood glucose” and the “glucose tolerance (OGTT)” value is listed as “significant improvement in the glucose tolerance”.

Values taken from patent US20250090529A1, “USE OF SHP2 INHIBITORS FOR THE TREATMENT OF INSULIN RESISTANCE” (INSERM (INSTITUT NATIONAL DE LA SANTÉ ET DE LA RECHERCHE …, priority 2018, published 2025).
